Measured values published in patent US7371766B2, “Curcumin analogs with anti-tumor and anti-angiogenic properties” (Emory University, priority 1999, dated 2008).
Read-outs that look alike come from different tables or passages of the source.

Legend:
[1] = tested on: Vascular Endothelial Growth Factor (VEGF) production by human prostate cancer cell line DU-145; assay: VEGF ELISA, DU-145; type: cell-based; conditions: Table 4, 20 μM
[2] = tested on: Vascular Endothelial Growth Factor (VEGF) production by human prostate cancer cell line PC-3; assay: VEGF ELISA, PC-3; type: cell-based; conditions: Table 4, 20 μM
[3] = tested on: Vascular Endothelial Growth Factor (VEGF) production by human melanoma cell line RPMI-7951; assay: VEGF ELISA, RPMI-7951; conditions: for activity at 5 µM / activity at 20 µM: Homo sapiens, RPMI-7951, 72 h, read-out: VEGF; for VEGF ELISA / VEGF: RPMI-7951; for VEGF ELISA: DMSO control 3713
RPMI-7951 human melanoma = assay: Neutral Red Assay, cell viability, RPMI-7951; conditions: for viability at 5 µM / viability at 20 µM: Homo sapiens; for Cell Viability / Neutral Red Uptake, %: RPMI-7951; for Cell Viability: DMSO = 100; for Neutral Red Uptake, %: 72 hours
[4] = tested on: Tissue Factor (TF) production by human melanoma cell line RPMI-7951; assay: TF ELISA, RPMI-7951; type: cell-based
Method: IMUBIND Tissue Factor ELISA Kit (American Diagnostica Inc, Greenwich, Conn.) was used to determine TF concentration in each sample. The ELISA was carried out according to manufacturer's procedure.

[5] = 5 μM, DMSO control 4197 (EF-25: 1045)
[6] = RPMI-7951, 72 h, read-out: Neutral Red Uptake, %
[7] = RPMI-7951, read-out: Cell Viability
[8] = Table 5, 20 μM, DMSO control 7054
[9] = Table 5, 5 μM, DMSO control 7054

SMILES	activity at 20 µM [3] [%]	VEGF ELISA ([3]; 5 μM) [pg/ml/well]	VEGF [3, 5] [pg/mL]	VEGF ELISA ([3]; 20 μM) [pg/ml/well]	VEGF ([3]; 20 μM, DMSO control 4197) [pg/mL]	viability at 20 µM (RPMI-7951 human melanoma; [6]) [%]	viability at 20 µM (RPMI-7951 human melanoma; [7]) [%]	VEGF ([3]; 20 μM, DMSO = 100) [%]	Cell Viability (RPMI-7951 human melanoma; 20 μM) [%]	other results
O=S(=O)(NCc1ccccc1)NCc1ccccc1 [Compound A272]										VEGF ([1]; DMSO = 100): 129%; VEGF ([1]; mean of triplicate and S.D.): 24155 ± 4635 pg/mL; VEGF ([2]; DMSO = 100): 89%; VEGF ([2]; mean of triplicate and S.D.): 1864 ± 339 pg/mL
COc1ccc(CNS(=O)(=O)NCc2ccc(OC)c(OC)c2)cc1OC [Compound A277a]										VEGF ([1]; DMSO = 100): 146%; VEGF ([1]; mean of triplicate and S.D.): 27403 ± 3143 pg/mL; VEGF ([2]; DMSO = 100): 95%; VEGF ([2]; mean of triplicate and S.D.): 2007 ± 30 pg/mL
COc1ccc(CNC(=O)NCc2ccc(OC)c(OC)c2)cc1OC [Compound A277b]										VEGF ([1]; DMSO = 100): 145%; VEGF ([1]; mean of triplicate and S.D.): 27124 ± 1346 pg/mL; VEGF ([2]; DMSO = 100): 89%; VEGF ([2]; mean of triplicate and S.D.): 1868 ± 38 pg/mL
CN(C)/N=N/c1[nH]cnc1C(N)=O [Decabazine, Decarbazine, reference compound]	31	1136	1171	1531	1293	100	99			activity at 5 µM [3]: 28%; viability at 5 µM (RPMI-7951 human melanoma; [6]): 100%; viability at 5 µM (RPMI-7951 human melanoma; [7]): 91%
CON=C(/C=C/c1ccccc1O)/C=C/c1ccccc1O [EF6, N-(Methoxy)-1,5-bis(2-hydroxyphenyl)penta-1,4-dien-3-imine]	45						72			
O=C(C=Cc1ccccc1F)C=Cc1ccccc1F [EF8, 1,5-Bis(2-fluorophenyl)penta-1,4-dien-3-one]	1	2208	2276	319	35	8	54			activity at 5 µM [3]: 54%; viability at 5 µM (RPMI-7951 human melanoma; [6]): 97%; viability at 5 µM (RPMI-7951 human melanoma; [7]): 94%
O=C(C=Cc1ccc(F)c(F)c1)C=Cc1ccc(F)c(F)c1 [EF10, 1,5-Bis(3,4-difluorophenyl)penta-1,4-dien-3-one]	5			257	217	8	54			
O=S(=O)(/C=C/c1ccccc1)/C=C/c1ccccc1 [EF12, 3,5-Bisbenzylidenesulfone]								70	92	
[O-][S+](/C=C/c1ccccc1)/C=C/c1ccccc1 [EF13, E,E-3,5-Bisbenzylidenesulfoxide]								53	92	
Oc1ccccc1CCC(O)CCc1ccccc1O [EF32, 1,5-Bis(2-hydroxyphenyl)-pentan-3-ol]										TF ([4]; 20 μM, DMSO = 100): 123%; TF [4, 8]: 8654 pg/mL
COc1ccc(CCC(O)CCc2ccc(OC)c(OC)c2)cc1OC [MD279L, 1,5-Bis(3,4-dimethoxyphenyl)penta-3-ol]		2235	904	1603	0			0	109	TF ([4]; 5 μM, DMSO = 100): 82%; TF ELISA ([4]; 5 μM, DMSO control 7054): 5791 pg/ml/well; TF ([4]; 20 μM, DMSO = 100): 83%; TF ELISA ([4]; 20 μM, DMSO control 7054): 5858 pg/ml/well; TF [4, 9]: 5791 pg/mL; TF [4, 8]: 5858 pg/mL; VEGF ([3]; 5 μM, DMSO = 100): 22%; Neutral Red Uptake, % (RPMI-7951 human melanoma; 5 μM): 100 % of control; Cell Viability (RPMI-7951 human melanoma; 5 μM): 110%; Neutral Red Uptake, % (RPMI-7951 human melanoma; 20 μM): 100 % of control
COc1ccc(CCC(=O)CCc2ccc(OC)c(OC)c2)cc1OC [MD279U, 1,5-Bis(3,4-dimethoxyphenyl)penta-3-one]		2511	1197	779	1179			18	113	TF ([4]; 5 μM, DMSO = 100): 102%; TF ELISA ([4]; 5 μM, DMSO control 7054): 7200 pg/ml/well; TF ([4]; 20 μM, DMSO = 100): 75%; TF ELISA ([4]; 20 μM, DMSO control 7054): 5316 pg/ml/well; TF [4, 9]: 7200 pg/mL; TF [4, 8]: 5316 pg/mL; VEGF ([3]; 5 μM, DMSO = 100): 28%; Neutral Red Uptake, % (RPMI-7951 human melanoma; 5 μM): 100 % of control; Cell Viability (RPMI-7951 human melanoma; 5 μM): 112%; Neutral Red Uptake, % (RPMI-7951 human melanoma; 20 μM): 100 % of control
O=C1CCC(N2C(=O)c3ccccc3C2=O)C(=O)N1 (stereo not drawn) [Thalidomide, reference compound]	57	1810	1865	2827	2387	100	97			activity at 5 µM [3]: 44%; viability at 5 µM (RPMI-7951 human melanoma; [6]): 100%; viability at 5 µM (RPMI-7951 human melanoma; [7]): 105%
